# Source: article PMC5893132, “Selective inhibition of histamine-evoked Ca^2+ signals by compartmentalized cAMP in human bronchial airway smooth muscle cells” (Cell Calcium, 2018)
# Where a name gives a salt, the structure may show the parent alone.
# System: carbachol-evoked Ca^2+ signals in hBASMCs
# Assay: Carbachol-evoked Ca2+ signals in populations of fluo-4-loaded hBASMCs
# Assay type: cell-based, human
# Settings: cells treated with PTX 100 ng·mL^−1, 24 h; HBS
# Experimental: Two methods were used to measure [Ca^2+]i in populations of hBASMCs. For measurements using a FlexStation III plate-reader (Molecular Devices, Sunnyvale, CA, USA), hBASMCs were seeded into 96-well plates (10^4 cells per well). After about 4 days, when the cells were confluent, the medium was replaced with SMGM-2 without serum or growth factor supplements, and the cells were used after a further 24 h. […] Cells were washed with HEPES-buffered saline (HBS: 135 mM NaCl, 5.9 mM KCl, 1.2 mM MgCl2, 1.5 mM CaCl2, 11.6 mM HEPES, 11.5 mM D-glucose, pH 7.3), and loaded with fluo-4 by incubation with fluo-4-AM (2 μM) in HBS (100 μL per well) containing pluronic F127 (0.02%, v/v) and probenecid (2.5 mM). After 1 h at 20 °C, the medium was replaced with HBS (100 μL per well) containing probenecid (2.5 mM). After a further incubation at 20 °C for 1 h, the medium was replaced with HBS (60–80 μL per well) or nominally Ca^2+-free HBS, and the cells were used immediately for experiments at 20 °C. […] Drug additions (20 μL at 4 or 5 times the final concentration) were added automatically. Fluorescence from fluo-4 (excitation 485 nm, emission 525 nm) was recorded at 1.44-s intervals using Softmax Pro 5.4 (Molecular Devices). Fluorescence was calibrated to [Ca^2+]i from: [Ca^2+]i=KDCa×(F−Fmin/Fmax−F) where, KDCa is the equilibrium dissociation constant of fluo-4 for Ca^2+ (345 nM), F is the recorded fluorescence, and Fmin and Fmax are the fluorescence values recorded after addition of triton-X-100 (0.1%, v/v) with either BAPTA (10 mM, Fmin) or CaCl2 (10 mM, Fmax). […] Fmax was determined for each well at the end of an experiment, and the average value was used for each column of 8 wells. Fmin was determined from parallel wells on each plate.
# For measurements of [Ca^2+]i using an FDSS 7000 FLIPR (Hamamatsu), hBASMCs were seeded into 384-well plates (8000 cells per well) in 20 μL of SMGM-2 containing 5% serum. […] The exact composition of this ‘no-wash’ indicator kit is not disclosed by the manufacturer, but it contains fluo-4-AM and components that reduce background fluorescence. […]
smiles,measurement,value
"CC(C)NC[C@H](O)c1ccc(O)c(O)c1 [isoproterenol, (−)-isoproterenol hydrochloride]",effect on the Ca2+ signals evoked by carbachol after pertussis toxin,remained insensitive to isoproterenol
